Format in all cases: cell-based
Test [1] relates to BaF3_DTC (EGFR_Exon19del/T790M/C797S). The experiment in a line: EGFR degradation assay (western blot), BaF3_DTC cells. The following applies: BaF3_DTC cells (EGFR_Exon19del/T790M/C797S), compounds 24 h, western blot; read-out: BaF3_DTC DC50. As for the experimental part: (§1) A431 (EGFR_WT), NCl-H2073 (EGFR_WT), NCl-H292 (EGFR_WT), BaF3_YVAM (Her2_A775insYVAM), BaF3_SVD (EGFR_D770insSVD), BaF3_ASV (EGFR_A776inASV), or BaF3_DTC (EGFR_Exon19del/T790M/C797S) cells were seeded in a 24-well plate at a density of 4×10^5 cells per well for EGFR WT cells and 8× cells per well for EGFR or Her2 mutant cells, and the plates were incubated overnight. The cells were treated with the desired compounds for 24 h. The culture medium was removed, and 100 μL of RIPA buffer (Beyotime, P0013B) containing 1% Protease Inhibitor Cocktail (Bimake, B14001), 1% Phosphatase Inhibitor Cocktail 2 (Sigma, P5726), and 1% Phosphatase Inhibitor Cocktail 3 (Sigma, P0044) were added to lyse the cells. Then, the cell lysates were transferred to 1.5 mL microcentrifuge tubes and centrifuged at 12,000 rpm and 4° C. for 30 min. The supernatants were transferred into new tubes, and the protein concentration was determined using the BCA protein quantification method. All samples were diluted to the same concentration using RIPA buffer, loading buffer was added, samples were denatured, and 15 μg of protein per lane was loaded onto a SurePAGE 4-20% Bis-Tris gel. Samples were separated via electrophoresis in MOPS running buffer at 180 V for 100 min. Then, proteins were transferred onto PVDF membranes using the MiniBlot™ Electrophoretic Transfer Cell Device (Beyotime, E6050). The membrane was blocked using block buffer (LI-COR 927-60001) to prevent non-specific binding. The membrane was incubated with primary antibodies (1:500 dilution, EGFR-CST4405, 1:2000 dilution, Tubulin-ABclonal #AC021) at 4° C. overnight. The membrane was washed three times with 1× TBST buffer for 15 min each. The membrane was incubated with secondary antibodies IRDye 680RD Goat anti-Rabbit IgG Secondary Antibody (1:2000 dilution, LI-COR 926-68071) and IRDye 800CW Goat anti-Mouse IgG Secondary Antibody (1:2000 dilution, LI-COR 926-32210). Finally, the membrane was washed again with 1× TBST buffer 3 times. Fluorescence was detected using the Odyssey CLx Imaging System, and the data were analyzed with Empiria Studio Software and GraphPad Prism 9. Table 4 and Table 5 list the degradation results, where the degradation potency is represented by DC50, the concentration of compounds to cause the degradation of 50% of the corresponding proteins. FIGS. 45-49 show western blots illustrating the EGFR degradative activity of exemplary Compound of the present disclosure and a comparator Compound A in different cell lines 24 h after administration. The Compound referred herein as Compound A is disclosed in WO 2022/171123 A1 (see, compound 133, page 46; published Aug. 18, 2022). WO 2022/171123 A1 discloses phosphine oxide derived molecules with EGFR degradation activity.
In general terms: A western blot detects proteins with antibodies after separation by electrophoresis.

Test [2] concerns the target T1, BaF3_ASV (EGFR_A776inASV) (Homo sapiens, UniProt P00533, DUP767-769).
T1 construct: expressed in transfected cells; host or cells: Ba/F3 (engineered)
In words: EGFR degradation assay (western blot), BaF3_ASV cells. The following applies: BaF3_ASV cells, compounds 24 h, western blot; read-out: BaF3_ASV DC50. As for the experimental part:
as §1

The test system of test [3] is BaF3_DTC. The experiment in a line: Cell growth inhibition assay (CellTiter-Glo), BaF3_DTC. To be noted: 72 h; Table 6; BaF3_DTC cells, three days, CellTiter-Glo; read-out: BaF3_DTC GI50. As for the experimental part:
(§2) Cells were seeded in a 96-well plate (Corning 3610) with 90 μL of culture medium per well, and plates were incubated at 37° C. overnight. A 1,000× DMSO stock solution of the desired compound was prepared the following day. A compound dilution plate was prepared by diluting the stock solution 1:100 in the corresponding cell culture medium, 10 μL of the diluted compound solution was added to each 96-well plate well containing the seeded cells. […] The content of the wells was mixed by shaking continuously for 10 min, and luminescence was measured using Envision (PerkinElmer). The data were analyzed with GraphPad Prism 9 (see FIG. 50).
(§3) Table 6, Table 7, and Table 8 list the cell growth inhibition results, where Gls0 represents the compound concentration to cause 50% cell growth inhibition in comparison with DMSO.
(In general: ATP-based viability assays read luminescence as a measure of living cells.)

In test [4] the test system is A431. The experiment in a line: Cell growth inhibition assay (CellTiter-Glo), A431. The following applies: Homo sapiens, A-431, 72 h, Table 6; A431 cells, three days, CellTiter-Glo; read-out: A431 GI50. How it is done:
as §2, §3

Test [5] has as its system BaF3_ASV. The experiment in a line: Cell growth inhibition assay (CellTiter-Glo), BaF3_ASV. To be noted: 72 h; Table 6; BaF3_ASV cells, three days, CellTiter-Glo; read-out: BaF3_ASV GI50. How it is done: as §2, §3

DC50 and GI50 data for 9 molecules are collected here from patent US20250002473A1, “QUINOXALINE DERIVED SULFONAMIDES WITH EGFR DEGRADATION ACTIVITIES AND THEIR USES THEREOF” (Accutar Biotechnology Inc., priority 2023, published 2025).

One may read the DC50 as the concentration giving 50% degradation. As a reminder, the GI50 is the concentration giving 50% growth inhibition.

T1 sequence (P00533 with tags, fused parts or gaps DUP767-769): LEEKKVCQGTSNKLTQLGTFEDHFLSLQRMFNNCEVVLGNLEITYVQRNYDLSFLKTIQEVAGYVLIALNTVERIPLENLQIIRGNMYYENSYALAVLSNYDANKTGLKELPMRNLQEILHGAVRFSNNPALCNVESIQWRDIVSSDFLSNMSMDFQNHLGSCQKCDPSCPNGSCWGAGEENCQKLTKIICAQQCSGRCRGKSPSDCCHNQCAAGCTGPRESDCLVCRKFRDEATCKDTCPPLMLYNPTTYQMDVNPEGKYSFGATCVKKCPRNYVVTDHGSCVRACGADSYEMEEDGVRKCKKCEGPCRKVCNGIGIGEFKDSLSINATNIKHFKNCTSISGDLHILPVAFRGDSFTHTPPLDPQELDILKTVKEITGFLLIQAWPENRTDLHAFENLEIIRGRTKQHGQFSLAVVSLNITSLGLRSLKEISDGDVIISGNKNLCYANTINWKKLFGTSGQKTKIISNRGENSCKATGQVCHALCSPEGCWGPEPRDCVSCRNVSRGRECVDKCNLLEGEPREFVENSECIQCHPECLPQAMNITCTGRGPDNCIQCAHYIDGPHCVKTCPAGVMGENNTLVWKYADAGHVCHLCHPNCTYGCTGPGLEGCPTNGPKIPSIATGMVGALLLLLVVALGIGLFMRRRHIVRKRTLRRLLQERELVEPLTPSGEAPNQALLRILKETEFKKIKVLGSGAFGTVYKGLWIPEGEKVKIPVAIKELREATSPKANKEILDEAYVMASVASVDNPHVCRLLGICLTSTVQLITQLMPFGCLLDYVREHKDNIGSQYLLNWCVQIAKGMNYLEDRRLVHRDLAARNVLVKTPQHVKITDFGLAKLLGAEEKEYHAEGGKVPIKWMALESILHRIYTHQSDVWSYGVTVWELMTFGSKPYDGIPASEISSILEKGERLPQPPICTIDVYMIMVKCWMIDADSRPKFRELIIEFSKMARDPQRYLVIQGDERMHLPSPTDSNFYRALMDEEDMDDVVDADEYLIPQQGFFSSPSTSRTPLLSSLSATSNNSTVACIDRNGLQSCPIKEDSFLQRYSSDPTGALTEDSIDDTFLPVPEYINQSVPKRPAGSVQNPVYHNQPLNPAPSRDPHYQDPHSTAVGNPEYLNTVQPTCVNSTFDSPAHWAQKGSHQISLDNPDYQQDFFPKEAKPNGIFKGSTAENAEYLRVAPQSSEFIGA

With `COc1cc(N2CCC(N3CCN(CC4CCN(c5ccc6c(c5)CN(C5CCC(=O)NC5=O)C6=O)CC4)CC3)CC2)c(-c2cnn(C)c2)cc1Nc1ncc(Br)c(Nc2ccc3nccnc3c2NS(C)(=O)=O)n1` (stereo not drawn) [Compound 32, N-(6-((5-bromo-2-((4-(4-(4-((1-(2-(2,6-dioxopiperidin-3-yl)-1-oxoisoindolin-5-yl)piperidin-4-yl)methyl)piperazin-1-yl)piperidin-1-yl)-2-methoxy-5-(1-methyl-1H-pyrazol-4-yl)phenyl)amino)pyrimidin-4-yl)amino)quinoxalin-5-yl)methanesulfonamide], the values for the DC50 in test [1] and in test [2] were 3.1 nM and 26 nM, respectively. Further, the GI50 turned out to be 10.9 nM in test [3], 214 nM in test [4] and 35.6 nM in test [5].
On to `CCc1cc(Nc2ncc(Br)c(Nc3ccc4nccnc4c3NS(C)(=O)=O)n2)c(OC)cc1N1CCC(N2CCC(CN3CCN(c4ccc5c(c4)CN([C@H]4CCC(=O)NC4=O)C5=O)CC3)CC2)CC1` [Compound 35, (S)-N-(6-((5-bromo-2-((4-(4-((4-(2-(2,6-dioxopiperidin-3-yl)-1-oxoisoindolin-5-yl)piperazin-1-yl)methyl) [1,4′-bipiperidin]-1′-yl)-5-ethyl-2-methoxyphenyl)amino)pyrimidin-4-yl)amino)quinoxalin-5-yl)methanesulfonamide], for which the DC50 in test [1] was found to be 66 nM; in test [2], 86.5 nM. The concentration for 50% growth inhibition (GI50) in test [3] was 13.7 nM; in test [4] it was more than 1000 nM; in test [5], 126 nM.
In the case of `CCc1cc(Nc2ncc(Br)c(Nc3ccc4nccnc4c3NS(C)(=O)=O)n2)c(OC)cc1N1CCC(N2CCC(N3CCN(c4ccc5c(c4)CN([C@H]4CCC(=O)NC4=O)C5=O)CC3)CC2)CC1` [Compound 36, (S)-N-(6-((5-bromo-2-((4-(4-(4-(2-(2,6-dioxopiperidin-3-yl)-1-oxoisoindolin-5-yl)piperazin-1-yl)-[1,4′-bipiperidin]-1′-yl)-5-ethyl-2-methoxyphenyl)amino)pyrimidin-4-yl)amino)quinoxalin-5-yl)methanesulfonamide], the DC50 was found to be 1.27 nM in test [1] and 102 nM in test [2]. For the same molecule, the GI50 is 9.12 nM in test [3], more than 1000 nM in test [4] and 77.6 nM in test [5].
Taken in the same sequence, the figures for `CCc1cc(Nc2ncc(Br)c(Nc3ccc4nccnc4c3NS(C)(=O)=O)n2)c(OC)cc1N1CCC2(CCN(CC3CCN(c4ccc5c(c4)CN(C4CCC(=O)NC4=O)C5=O)CC3)CC2)CC1` (stereo not drawn) [Compound 37, N-(6-((5-bromo-2-((4-(9-((1-(2-(2,6-dioxopiperidin-3-yl)-1-oxoisoindolin-5-yl)piperidin-4-yl)methyl)-3,9-diazaspiro[5.5]undecan-3-yl)-5-ethyl-2-methoxyphenyl)amino)pyrimidin-4-yl)amino)quinoxalin-5-yl)methanesulfonamide] were 8.6 nM, 102 nM, 7.94 nM, 382 nM and 55.7 nM.
Turning to `CCc1cc(Nc2ncc(Br)c(Nc3ccc4nccnc4c3NS(C)(=O)=O)n2)c(OC)cc1N1CCC(N2CCN(CCN3CCN(c4ccc5c(c4)CN([C@H]4CCC(=O)NC4=O)C5=O)CC3)CC2)CC1` [Compound 39, (S)-N-(6-((5-bromo-2-((4-(4-(4-(2-(4-(2-(2,6-dioxopiperidin-3-yl)-1-oxoisoindolin-5-yl)piperazin-1-yl)ethyl)piperazin-1-yl)piperidin-1-yl)-5-ethyl-2-methoxyphenyl)amino)pyrimidin-4-yl)amino)quinoxalin-5-yl)methanesulfonamide], the 50% degradation concentration (DC50) in test [1] came to 3.13 nM. For the same molecule, the GI50 was 11.1 nM in test [3], 441 nM in test [4] and 73.4 nM in test [5].
On to `CCc1cc(Nc2ncc(Br)c(Nc3ccc4nccnc4c3NS(C)(=O)=O)n2)c(OC)cc1N1CCC2(CC1)CN(CC1CCN(c3ccc4c(c3)CN(C3CCC(=O)NC3=O)C4=O)CC1)C2` (stereo not drawn) [Compound 40, N-(6-((5-bromo-2-((4-(2-((1-(2-(2,6-dioxopiperidin-3-yl)-1-oxoisoindolin-5-yl)piperidin-4-yl)methyl)-2,7-diazaspiro[3.5]nonan-7-yl)-5-ethyl-2-methoxyphenyl)amino)pyrimidin-4-yl)amino)quinoxalin-5-yl)methanesulfonamide], for which the 50% degradation concentration (DC50) in test [1] was 20.8 nM; in test [2], 93.8 nM. Moreover, the GI50 in test [3] was determined as 7.99 nM; in test [4], 399 nM; in test [5] it was 60.2 nM.
The corresponding values for `CCc1cc(Nc2ncc(Br)c(Nc3ccc4nccnc4c3NS(C)(=O)=O)n2)c(OC)cc1N1CCC(N2CCN(CC3(CN4CCN(c5ccc6c(c5)CN([C@H]5CCC(=O)NC5=O)C6=O)CC4)CC3)CC2)CC1` [Compound 42, (S)-N-(6-((5-bromo-2-((4-(4-(4-((1-((4-(2-(2,6-dioxopiperidin-3-yl)-1-oxoisoindolin-5-yl)piperazin-1-yl)methyl)cyclopropyl)methyl)piperazin-1-yl)piperidin-1-yl)-5-ethyl-2-methoxyphenyl)amino)pyrimidin-4-yl)amino)quinoxalin-5-yl)methanesulfonamide] are more than 100 nM, more than 1000 nM, 86 nM, 606 nM and 105 nM.
For the molecule `CCc1cc(Nc2ncc(Br)c(Nc3ccc4nccnc4c3NS(C)(=O)=O)n2)c(OC)cc1N1CCC(CN2CCN(c3ccc4c(c3)CN([C@H]3CCC(=O)NC3=O)C4=O)CC2)CC1` [Compound 43, (S)-N-(6-((5-bromo-2-((4-(4-((4-(2-(2,6-dioxopiperidin-3-yl)-1-oxoisoindolin-5-yl)piperazin-1-yl)methyl)piperidin-1-yl)-5-ethyl-2-methoxyphenyl)amino)pyrimidin-4-yl)amino)quinoxalin-5-yl)methanesulfonamide], the DC50 in test [1] was determined as 0.323 nM. The GI50 in test [3] is 15 nM; in test [4], more than 1000 nM; in test [5], 119 nM.
Turning to `CCc1cc(Nc2ncc(Br)c(Nc3ccc4nccnc4c3NS(C)(=O)=O)n2)c(OC)cc1N1CCC(N2CCN(CC3CC4(CCN(c5ccc6c(c5)CN(C5CCC(=O)NC5=O)C6=O)CC4)C3)CC2)CC1` (stereo not drawn) [Compound 47, N-(6-((5-bromo-2-((4-(4-(4-((7-(2-(2,6-dioxopiperidin-3-yl)-1-oxoisoindolin-5-yl)-7-azaspiro[3.5]nonan-2-yl)methyl)piperazin-1-yl)piperidin-1-yl)-5-ethyl-2-methoxyphenyl)amino)pyrimidin-4-yl)amino)quinoxalin-5-yl)methanesulfonamide], in test [1], the DC50 turned out to be 14.5 nM. Also, the figures for the GI50 in test [3], in test [4] and in test [5] were 12.1 nM, more than 1000 nM and 47.5 nM, respectively.
